In general, Kd refers to the equilibrium constant for the complex coming apart. As a reminder, the EC50 is the concentration giving half of the maximal effect.

A short description of experiment [1]: Binding affinity to human FKBP F36V mutant.
Experiment [2] in a line: Binding affinity to human FKBP F36V/L106P mutant-YFP fusion protein expressed in NIH3T3 cells after 24 hrs. It is filed as cell-based.

The structures appear in SMILES notation.

The molecule `CC[C@H](C(=O)N1CCCC[C@H]1C(=O)O[C@H](CCc1ccc(OC)c(OC)c1)c1cccc(OCCN2CCOCC2)c1)c1cc(OC)c(OC)c(OC)c1` had a Kd in experiment [1] of 2.4 nM. The EC50 in experiment [2] was 100 nM.

Molecule `CCC(CC)NC(=O)N1CCCC[C@H]1C(=O)O[C@H](CCc1ccc(OC)c(OC)c1)c1cccc(OCCN2CCOCC2)c1` gave a dissociation constant Kd in experiment [1] of 29 nM. The midpoint of the response in experiment [2], the EC50, lay at 1200 nM.

Values taken from ChEMBL document CHEMBL1143178, “Synthesis and analysis of stabilizing ligands for FKBP-derived destabilizing domains” (Bioorg Med Chem Lett, 2008).
